The text below walks through data of article PMC6390652 (Toxicological Sciences, 2018).

For data set [1], the system named is human GI microtissues (EpiIntestinal-FT, ileal). Briefly: Human GI microtissue barrier function assay. It counts as cell-based. The settings on record: for TEER (IC15): human microtissue, blinded, unit not given; for IC15: Homo sapiens.
The test system of data set [2] is human GI microtissue. As to the kind of experiment: GI microtissue TEER response kinetics. It counts as cell-based.
Data set [3] concerns Caco-2 cells. The settings on record: for Caco-2 TEER IC15: Caco-2 transwell, top conc. 100 μM, unit inferred; for Caco-2 TEER IC15/Cmax: human.
Data set [4] deals with human GI microtissue. As to the kind of experiment: MTT viability assay. The format is cell-based. The conditions noted are these: Caco-2, read-out: MTT IC50.
Setting [5] is: 96 h, read-out: Microtissue Exp 1 TEER IC15.
The mark [6] stands for this setting: read-out: Microtissue Exp 2 TEER IC15.

Where two headings read alike, the source gives them in different places. Bounds are passed on as bounds.

Turning to `CSCC[C@H](NC(=O)c1cc(NC[C@@H]2C[C@H](SC(=O)c3cccnc3)CN2)ccc1CCc1ccc(F)cc1)C(=O)OC(C)C` [AZD3409], in data set [1], the “TEER (IC15)” value is on record as 3.0E-06. The “TEER Diarrhea-Genic Prediction” value in data set [1] (scored with TEER IC15/Cmax ratio < 80) is listed as “Active”.

Consider `CNC(=O)CN1CCC(Oc2cc3c(Nc4cccc(Cl)c4F)ncnc3cc2OC)CC1` [AZD8931], for which, in data set [1], the “TEER Diarrhea-Genic Prediction” value is listed as “Active” and the “TEER (IC15)” value was found to be 3.0E-9. Moreover, the “TEER recovery after washout” value in data set [2] (100 μM for 3 days, then washout (first cycle)) is “quickly recovered TEER after washout”. In data set [2] (100 μM, 3 days continuous, TEER measured daily), the “Effect on TEER during 3-day treatment period” value is recorded as “pronounced decrease in TEER”. In addition, the “TEER recovery after second treatment cycle” value in data set [2] (100 μM, second treatment cycle) was “slower”.

A word on the IC50: it is the midpoint of a concentration-inhibition curve. Consider `CN(C)C/C=C/C(=O)Nc1cc2c(Nc3ccc(F)c(Cl)c3)ncnc2cc1O[C@H]1CCOC1` [Afatinib], for which, in data set [3], the Caco-2 TEER IC15 was found to be 9 µM. For the same compound, in data set [4], the IC50 is 30 µM. Also, the IC15 in data set [1] (setting [5]) came out at 6 µM; in data set [1] (setting [6]), 8.5 µM.

For the compound `COc1cc2nc(N(C)CCCNC(=O)C3CCCO3)nc(N)c2cc1OC` (stereo not drawn) [Alfuzosin], the “Caco-2 TEER IC15/Cmax” value in data set [3] turned out to be 3132. Further, the IC50 in data set [4] is more than 100 µM. The IC15 in data set [1] (setting [5]) and in data set [1] (setting [6]) was more than 100 µM in each case.

`CCCCc1oc2ccccc2c1C(=O)c1cc(I)c(OCCN(CC)CC)c(I)c1` [Amiodarone]: the IC15 in data set [1] (setting [5]) is 40 µM.

In data set [3], `CCOC(=O)C1=C(COCCN)NC(C)=C(C(=O)OC)C1c1ccccc1Cl` (stereo not drawn) [Amlodipine] gave a Caco-2 TEER IC15 of 30 µM. In addition, the IC50 in data set [4] worked out at 45 µM. The IC15 turned out to be 15 µM in data set [1] (setting [5]) and 10 µM in data set [1] (setting [6]).

With `CNC(=O)c1ccccc1Sc1ccc2c(/C=C/c3ccccn3)n[nH]c2c1` [Axitinib], the IC15 is 1 µM in data set [1] (setting [5]) and more than 100 µM in data set [1] (setting [6]).

Compound `CC(C)C[C@H](NC(=O)[C@H](Cc1ccccc1)NC(=O)c1cnccn1)B(O)O` [Bortezomib] showed a Caco-2 TEER IC15 in data set [3] of 1 µM. Moreover, in data set [4], the IC50 is more than 100 µM. Moreover, the IC15 in data set [1] (setting [5]) and in data set [1] (setting [6]) was 1 µM each time.

In data set [3], `CCCCCOC(=O)Nc1nc(=O)n([C@@H]2O[C@H](C)[C@@H](O)[C@H]2O)cc1F` [Capecitabine] displayed a Caco-2 TEER IC15 of more than 100 µM. In addition, the IC50 in data set [4] is more than 100 µM. Moreover, the IC15 in data set [1] (setting [5]) and in data set [1] (setting [6]) was 1 µM throughout.

Take `COc1cc2c(c(OC)c1OC)-c1ccc(OC)c(=O)cc1[C@@H](NC(C)=O)CC2` [Colchicine]: the IC15 in data set [1] (setting [5]) was more than 100 µM; in data set [1] (setting [6]), 1 µM.

As to `C[C@@H](Oc1cc(-c2cnn(C3CCNCC3)c2)cnc1N)c1c(Cl)ccc(F)c1Cl` [Crizotinib], the Caco-2 TEER IC15 in data set [3] amounted to 8 µM. For the same compound, the half-inhibitory concentration (IC50) in data set [4] was found to be 22 µM. Also, the IC15 in data set [1] (setting [5]) and in data set [1] (setting [6]) was 9.5 µM throughout.

Turning to `C[C@@H]1C[C@H]2[C@@H]3CCC4=CC(=O)C=C[C@]4(C)[C@@]3(F)[C@@H](O)C[C@]2(C)[C@@]1(O)C(=O)CO` [Dexamethasone], in data set [3], the Caco-2 TEER IC15 was more than 100 µM. Moreover, the 50% inhibitory concentration (IC50) in data set [4] is more than 100 µM. The IC15 in data set [1] (setting [5]) and in data set [1] (setting [6]) was more than 100 µM each time.

As for `Cc1cccc([C@H](C)c2cnc[nH]2)c1C` [Dexmedetomidine], the “Caco-2 TEER IC15/Cmax” value in data set [3] is recorded as 21138. Besides, the 50% inhibitory concentration (IC50) in data set [4] was more than 100 µM. In addition, the IC15 in data set [1] (setting [5]) and in data set [1] (setting [6]) was 40 µM in each case.

In data set [3], `CC(=O)Oc1cccc2c1C(=O)c1c(OC(C)=O)cc(C(=O)O)cc1C2=O` [Diacerein] gave a Caco-2 TEER IC15 of more than 100 µM. Also, in data set [4], the IC50 was determined as 65 µM. The IC15 in data set [1] (setting [5]) and in data set [1] (setting [6]) was 40 µM in each case.

`CC(=O)O[C@@]12CO[C@@H]1C[C@H](O)[C@@]1(C)C(=O)[C@H](O)C3=C(C)[C@@H](OC(=O)[C@H](O)[C@@H](NC(=O)OC(C)(C)C)c4ccccc4)C[C@@](O)([C@@H](OC(=O)c4ccccc4)[C@H]21)C3(C)C` [Docetaxel] displayed a Caco-2 TEER IC15 in data set [3] of more than 100 µM. Further, in data set [4], the IC50 worked out at 65 µM. The IC15 in data set [1] (setting [5]) and in data set [1] (setting [6]) was 40 µM each time.

In turn, `CN(CCOc1ccc(NS(C)(=O)=O)cc1)CCc1ccc(NS(C)(=O)=O)cc1` [Dofetilide] showed a Caco-2 TEER IC15 in data set [3] of more than 100 µM. In data set [4], the IC50 was more than 100 µM. Besides, the IC15 in data set [1] (setting [5]) and in data set [1] (setting [6]) was more than 100 µM in each case.

In turn, `CC(C)(C)NC(=O)[C@H]1CC[C@H]2[C@@H]3CC[C@H]4NC(=O)C=C[C@]4(C)[C@H]3CC[C@]12C` [Finasteride] displayed a Caco-2 TEER IC15 in data set [3] of more than 100 µM. Moreover, the IC50 in data set [4] was more than 100 µM. In addition, the IC15 in data set [1] (setting [5]) was 80 µM; in data set [1] (setting [6]), more than 100 µM.

`O=C(NCC1CCCCN1)c1cc(OCC(F)(F)F)ccc1OCC(F)(F)F` (stereo not drawn) [Flecainide]: the Caco-2 TEER IC15 in data set [3] was more than 100 µM. Moreover, the IC50 in data set [4] is more than 100 µM. Further, the IC15 is 80 µM in data set [1] (setting [5]) and more than 100 µM in data set [1] (setting [6]).

In data set [3], `CO[C@H]1O[C@H](COS(=O)(=O)O)[C@@H](O[C@@H]2O[C@@H](C(=O)O)[C@@H](O[C@H]3O[C@H](COS(=O)(=O)O)[C@@H](O[C@@H]4O[C@H](C(=O)O)[C@@H](O[C@H]5O[C@H](COS(=O)(=O)O)[C@@H](O)[C@H](O)[C@H]5NS(=O)(=O)O)[C@H](O)[C@H]4O)[C@H](OS(=O)(=O)O)[C@H]3NS(=O)(=O)O)[C@H](O)[C@H]2OS(=O)(=O)O)[C@H](O)[C@H]1NS(=O)(=O)O` [Fondaparinux] came in with a Caco-2 TEER IC15 of more than 100 µM. Moreover, the IC50 in data set [4] was more than 100 µM. The IC15 in data set [1] (setting [5]) and in data set [1] (setting [6]) was more than 100 µM in each case.

In data set [3], `O=C(CCCN1CCC(O)(c2ccc(Cl)cc2)CC1)c1ccc(F)cc1` [Haloperidol] had a Caco-2 TEER IC15 of 30 µM. Also, the IC15 in data set [1] (setting [5]) amounted to 22 µM; in data set [1] (setting [6]), 8 µM.

Regarding `CC(=O)[C@]1(O)Cc2c(O)c3c(c(O)c2[C@@H](O[C@H]2C[C@H](N)[C@H](O)[C@H](C)O2)C1)C(=O)c1ccccc1C3=O` [Idarubicin], in data set [3], the Caco-2 TEER IC15 was found to be 8 µM. In data set [4], the IC50 came out at 10 µM. The IC15 was determined as 4.3 µM in data set [1] (setting [5]) and 2.5 µM in data set [1] (setting [6]).

With `Cc1ccc(NC(=O)c2ccc(CN3CCN(C)CC3)cc2)cc1Nc1nccc(-c2cccnc2)n1` [Imatinib], the IC15 worked out at 7 µM in data set [1] (setting [5]) and 8 µM in data set [1] (setting [6]).

`CC(C)NCC(O)c1ccc(O)c(O)c1` (stereo not drawn) [Isoprenaline] came in with a Caco-2 TEER IC15 in data set [3] of more than 100 µM. In addition, the concentration for half-maximal inhibition (IC50) in data set [4] is more than 100 µM. For the same compound, the IC15 in data set [1] (setting [5]) and in data set [1] (setting [6]) was more than 100 µM each time.

As for `CNCCCC12CCC(c3ccccc31)c1ccccc12` [Maprotiline], the IC15 is 6 µM in data set [1] (setting [5]) and 9 µM in data set [1] (setting [6]).

On to `COc1c2occc2cc2ccc(=O)oc12` [Methoxsalen], for which, in data set [4], the IC50 was found to be 150 µM. The IC15 in data set [1] (setting [5]) and in data set [1] (setting [6]) was 150 µM each time.

`CC(C)(C)NCC(O)COc1cccc2c1CC(O)C(O)C2` (stereo not drawn) [Nadolol]: the Caco-2 TEER IC15 in data set [3] is more than 100 µM. The half-inhibitory concentration (IC50) in data set [4] is more than 100 µM. Moreover, the IC15 in data set [1] (setting [5]) and in data set [1] (setting [6]) was more than 100 µM in each case.

The compound `CCCCC[C@H](O)/C=C/[C@@H]1[C@H]2C/C(=C/CCCC(=O)O)O[C@H]2C[C@H]1O` [Prostacyclin] showed a Caco-2 TEER IC15 in data set [3] of more than 100 µM. Also, the IC50 in data set [4] was more than 100 µM. Also, the IC15 in data set [1] (setting [5]) and in data set [1] (setting [6]) was more than 100 µM in each case.

On to `C=C[C@H]1C[N@@]2CC[C@H]1C[C@@H]2[C@@H](O)c1ccnc2ccc(OC)cc12` [Quinidine], for which, in data set [4], the IC50 is more than 100 µM. The IC15 in data set [1] (setting [5]) and in data set [1] (setting [6]) was 30 µM throughout.

Consider `CNC(=O)c1cc(Oc2ccc(NC(=O)Nc3ccc(Cl)c(C(F)(F)F)c3)cc2)ccn1` [Sorafenib], for which the Caco-2 TEER IC15 in data set [3] amounted to 15 µM. The 50% inhibitory concentration (IC50) in data set [4] came to 65 µM. Besides, the IC15 in data set [1] (setting [5]) and in data set [1] (setting [6]) was 7.9 µM throughout.

In data set [3], `C=CC[C@@H]1/C=C(\C)C[C@H](C)C[C@H](OC)[C@H]2O[C@@](O)(C(=O)C(=O)N3CCCC[C@H]3C(=O)O[C@H](/C(C)=C/[C@@H]3CC[C@@H](O)[C@H](OC)C3)[C@H](C)[C@@H](O)CC1=O)[C@H](C)C[C@@H]2OC` [Tacrolimus] came in with a Caco-2 TEER IC15 of 30 µM. The IC50 in data set [4] stood at 55 µM. The figures for the IC15 in data set [1] (setting [5]) and in data set [1] (setting [6]) were 30 µM and 40 µM, respectively.

`C[C@]12C=CC(=O)C=C1CC[C@H]1[C@@H]3C[C@@H](O)[C@](O)(C(=O)CO)[C@@]3(C)C[C@H](O)[C@@]12F` [Triamcinolone]: in data set [3], the Caco-2 TEER IC15 was more than 100 µM. The IC50 in data set [4] is more than 100 µM. For the same compound, the IC15 in data set [1] (setting [5]) and in data set [1] (setting [6]) was more than 100 µM throughout.

As for `COc1ccc(CCN(C)CCCC(C#N)(c2ccc(OC)c(OC)c2)C(C)C)cc1OC` (stereo not drawn) [Verapamil], the IC15 in data set [1] (setting [5]) was determined as 40 µM; in data set [1] (setting [6]), 45 µM.
